Experimental data reported in patent US10632127B2, “Targeted notch pathway inhibitors” (Hoffmann-La Roche Inc., priority 2015, dated 2020).
Where a name gives a salt, the structure may show the parent alone. Read-outs that look alike come from different tables or passages of the source. Values belong to the compound of their own block, whether it stands above or below them.

What was measured:
[1] = target: Notch signal transduction pathway; experiment: In vitro Notch signal transduction pathway activity assay (DR215/F2 luciferase reporter); assay type: cell-based, human; conditions: for IC50 for blockade of the Notch pathway, range in words: DR215/F2 cell reporter assay; for IC50: Homo sapiens, 215/F2 reporter cell line, 19 h, mean of at least 3 experiments
Protocol: The compounds were dissolved in dimethyl sulfoxide (DMSO) at 10 mM stock solution, aliquoted and stored at −4° C. until use, then diluted in PBS or cell culture medium. In the experimental settings, controls containing increasing concentrations of DMSO, corresponding to the amount of DMSO of the diluted compounds were always included. For in vivo experiments, the compounds were dissolved in 0.9% NaCl, incubated 30 min at 40° C. and sonicated for 5 min.
The requirement of proteolytic activation of the prodrugs to inhibit Notch cleavage by the γ-secretase, was investigated using a reporter assay (Table 3). The DR215/F2 cell line expresses a reporter construct designed to monitor the activity of the Notch signal transduction pathway. The DR215/F2 cell line 39 carries two transgenes: the firefly luciferase reporter gene expressed under the control of the Gal4 promoter and the human Notch1 activator gene fused with the yeast Gal4 transcription factor. This assay confirmed that the prodrugs were able to inhibit γ-secretase and the activation of the Notch pathway. The DR215/F2 cell reporter assay was also used to determine the IC50 for blockade of the Notch pathway by all the compounds designed and prepared.
The values were determined using the 215/F2 reporter cell line for Notch activation by the γ-secretase. All values are the mean of at least 3 experiments.
The preparation and characterization of rat brain-derived EC219 endothelial cells have been described in Juillerat-Jeanneret, L. et al. In Vitro Cell. Dev. Biol. 1992, 28A, 537-543. These cells express high levels of APA and γ-GT activities and can be used for determining kinetics in living cells, and were chosen as APA- and γ-GT-positive representative cell models. EC219 cells were grown in DMEM medium containing 1 g/l glucose, 10% heat-inactivated fetal calf serum (FCS, EuroClone, UK) supplemented with 100 U/mL penicillin and 100 μg/mL streptomycin (P/S) on uncoated cell culture plastic ware. The HEK293 and HK2 human kidney cells are available from the ATCC (American Tissue Culture Collection, Manassas, Va., USA). HEK293 cells were grown on uncoated cell culture plastic ware in Iscove modified Dulbecco medium (IMDM, Life Technologies) containing 10% FCS and P/S. HK2 cells were grown on uncoated cell culture plastic ware in DMEM/F-12 GlutaMAX medium (Gibco) containing 5% FCS, P/S, 1% ITS (1.0 mg/ml bovine insulin, 0.55 mg/ml human transferrin and 0.5 μg/ml sodium selenite, Sigma-Aldrich) and 5 ng/ml hydrocortisone. The human HEK293-derived DR215/F2 embryonic kidney cell line, stably transfected with pFR Luc and APP-Notch Gal (plasmid DR215) as described in WO 2006/061136 A2 and Brockhaus, M. Neuroreport 1998 9, 1481-1486, were maintained using IMDM with 10% FCS supplemented with P/S and kept under double-selection with 150 μg/ml G-418 and 50 μg/ml hygromycin B on coated (1:100 Poly-L-lysine) cell culture plastic ware. In this assay, the Notch-Gal4 protein is bound to the cell membrane via its trans-membrane domain. The Notch intracellular domain is released by proteolytic cleavage mediated by the γ-secretase and moves to the cell nucleus where it activates the reporter luciferase gene transcript. Inhibition of γ-secretase thus decreases luciferase activity. Briefly, cultures were grown in 96-well microplates to 80% confluence; the cells were then washed in PBS and exposed to decreasing concentrations of the γ-secretase-inhibitor analogues in complete IMDM culture medium without red phenol at 37° C. for 19 h. Then 75 μl of supernatant from each well was removed and the luciferase activity was determined by adding 25 μl of Steady-Glo luciferase assay reagent (Promega).

[2] = Pharmacokinetic assessment in male Wistar rats (i.v.); assay type: in vivo, rat; conditions: for concentration at 0.25 h / concentration at 0.5 h: rat, intravenous
Protocol: (§1) For PK evaluation, the compounds were administered i.p to male C57BL/6 mice in suspension (gelatine/saline 7.5%/0.62% in water) using an administration volume of 4 mL/kg. Blood samples were collected in tubes containing EDTA, plasma was separated by centrifugation and stored at −80° C. Liver and kidney samples (˜100 mg aliquots) were homogenized in three volumes of water using Precellys tissue homogenization tubes (precellys.com). 25 μL of each tissue homogenate was further diluted with 25 μL blank plasma to produce the final tissue homogenate for extraction. All samples were analyzed using protein precipitation followed by LC-MS/MS analysis. Briefly, 50 μL plasma or final tissue homogenate were mixed with 50 μL 0.5M HClO4/acetonitrile 9/1 (containing 200 ng/mL internal standard bosentan). Samples were stirred and 300 μL water was added followed by centrifugation at 5600 rpm (4° C., 10 min). 10 μL supernatant was analyzed by LC/MS analysis. Calibration standards in plasma were prepared the same way. The LC column and conditions used were: Phenomenex, Polar RP, 4 μm, 50×2.1 mm at 0.4 mL/min flow rate with a 3 min gradient from 95% solvent A to 95% solvent B (Solvent A: Water/ACN/HCOOH, 90:10:0.1+10 mM NH4 formate; Solvent B: Water/ACN/HCOOH, 10:90:0.1+10 mM NH4 formate). Mass spectrometric conditions were: Thermo TSQ Vantage with positive heated electrospray ionization in MS/MS mode. Compounds mass transitions monitored were m/z 320.7 to 119.9. PK parameters for all studies were calculated using Phoenix WinNonlin Software.
We next determined the stability, tissue distribution and cleavage rate in plasma, liver and kidney of the designed prodrugs in male Wistar rats. In the in vivo screen, the kinetics and distribution of the prodrugs Ac-γ-Glu-SecrI (13a) and Ac-γ-Glu-O-SecrI (13c) were compared with the active γ-secretase inhibitor SecrI (8). After i.v. administration in male Wistar rats, the disappearance of the prodrugs and the formation of the active amine-SecrI (11a), amine-O-SecrI (11b) and SecrI (8) were compared in plasma, liver and kidney (Table 7A-C). First, we determined the pharmacokinetics (PK) behavior of SecrI (8) following i.v. administration (Table 7A). […] Liver and kidney exposure were much higher, with same exposure in liver and kidney. […] The selectivity towards kidney stayed constant over time. The carbonate analogue Ac-γ-Glu-O-SecrI (13c) prodrug was converted to a lower extent than the Ac-γ-Glu-SecrI (13a) to amine-O-SecrI (11b) but more to the linker free γ-secretase inhibitor 8 (Table 7C).
Plasma and tissue concentrations of administered compound (A-C) and formed amine-SecrI (11a), amine-O-SecrI (11b) or SecrI (8) (B-C) were determined following i.v. administration in rats (no standard deviation given due to sparse sampling; n≤3 rats per time point). Numbers in parentheses represent relative amounts with the exposure of kidney arbitrarily set at each time point to 100%. […] BQL=below quantifiable limit.

[3] = Pharmacokinetic assessment in C57BL/6 healthy wild-type mice (i.p.); assay type: in vivo, mouse; conditions: C57BL/6 mice, 10 mg/kg i.p.
Protocol: as §1
We next determined the stability, tissue distribution and cleavage rate in plasma, liver and kidney of the designed prodrugs in non-diseased mice. In the in vivo screen, the kinetics and distribution of γ-secretase inhibitor prodrugs Ac-γ-Glu-SecrI (13a), Ac-α-Glu-SecrI (15a) and H-α-Glu-SecrI (15b) were compared with the active γ-secretase inhibitor amine-SecrI (11a). After i.p administration (10 mg/kg) in C57BL/6 mice, the disappearance of the prodrugs and the formation of the active amine-SecrI (11a) were compared in plasma, liver and kidney (Table 5). First, we determined the pharmacokinetics (PK) behavior of amine-SecrI (11a) following i.p. administration (Table 5A). […] Liver and kidney exposure were much higher, with approximately 4.5-fold higher exposure in liver compared to kidney. […] The selectivity towards kidney appeared to decrease over time, probably due to fast clearance and re-equilibration of the amine-SecrI (11a). However, the high selectivity at earlier time-points assured that the total exposure over time was much higher in the kidney compared to the liver.

IC50 for blockade of the Notch pathway, range in words [1]: low nanomolar range | IC50 [1]: 0.5 nM | Plasma concentration of formed 11b ([2]; 13c 1.5 mg/kg i.v., 0.25 h): BQL | Plasma concentration of formed 11b ([2]; 13c 1.5 mg/kg i.v., 0.5 h): BQL | Plasma concentration of formed 11b ([2]; 13c 1.5 mg/kg i.v., 4 h): BQL | Formed 11b in kidney, relative amount (arbitrarily set to 100%) ([2]; 13c 1.5 mg/kg i.v., 7 h): (100) % | Plasma concentration of formed 11b ([2]; 13c 1.5 mg/kg i.v., 7 h): BQL | kidney selectivity, in words ([2]; formed after 13c i.v.): very good kidney selectivity
Compound: C[C@H]1Oc2ccc(F)cc2N(CCOC(=O)OCCN)C(=O)[C@H]1NC(=O)[C@@](C)(O)C(=O)NCC(F)(F)C(F)(F)F [Compound 11b, 2-Aminoethyl 2-((2R,3S)-7-fluoro-3-((S)-2-hydroxy-2-methyl-3-oxo-3-(2,2,3,3,3-pentafluoropropylamino)propanamido)-2-methyl-4-oxo-3,4-dihydrobenzo[b][1,4]oxazepin-5(2H)-yl)ethyl carbonate hydrochloride]

IC50 [1]: 170 nM | Kidney concentration of 13c ([2]; 13c 1.5 mg/kg i.v., 4 h): BQL | Liver concentration of 13c ([2]; 13c 1.5 mg/kg i.v., 4 h): BQL | Plasma concentration of 13c ([2]; 13c 1.5 mg/kg i.v., 4 h): BQL | Kidney concentration of 13c ([2]; 13c 1.5 mg/kg i.v., 7 h): BQL | Liver concentration of 13c ([2]; 13c 1.5 mg/kg i.v., 7 h): BQL | Plasma concentration of 13c ([2]; 13c 1.5 mg/kg i.v., 7 h): BQL | conversion to amine-O-SecrI (11b), in words ([2]; 13c i.v., compared with 13a): lower extent | conversion to the linker-free γ-secretase inhibitor 8, in words ([2]; i.v.): significantly converted | concentration at 0.25 h ([2]; kidney, 13c 1.5 mg/kg i.v., 0.25 h, read-out: Kidney concentration of 13c): 20.5 ng/g | concentration at 0.5 h ([2]; kidney, 13c 1.5 mg/kg i.v., 0.5 h, read-out: Kidney concentration of 13c): 3.8 ng/g | concentration at 0.25 h ([2]; liver, 13c 1.5 mg/kg i.v., 0.25 h, read-out: Liver concentration of 13c): 196 ng/g | concentration at 0.5 h ([2]; liver, 13c 1.5 mg/kg i.v., 0.5 h, read-out: Liver concentration of 13c): 32.3 ng/g | concentration at 0.25 h ([2]; plasma, 13c 1.5 mg/kg i.v., 0.25 h, read-out: Plasma concentration of 13c): 53 ng/mL | concentration at 0.5 h ([2]; plasma, 13c 1.5 mg/kg i.v., 0.5 h, read-out: Plasma concentration of 13c): 4.6 ng/mL
Compound: CC(=O)N[C@@H](CCC(=O)NCCOC(=O)OCCN1C(=O)[C@@H](NC(=O)[C@@](C)(O)C(=O)NCC(F)(F)C(F)(F)F)[C@@H](C)Oc2ccc(F)cc21)C(=O)O [Compound 13c, (S)-2-acetamido-5-(2-((2-((2R,3S)-7-fluoro-3-((S)-2-hydroxy-2-methyl-3-oxo-3-(2,2,3,3,3-pentafluoropropylamino)propanamido)-2-methyl-4-oxo-3,4-dihydrobenzo[b][1,4]oxazepin-5(2H)-yl)ethoxy)carbonyloxy)ethylamino)-5-oxopentanoic acid]

conversion to amine-SecrI (11a), in words [3]: overall highest conversion | Kidney concentration of administered compound ([3]; 4 h): BQL | Plasma concentration of administered compound ([3]; 4 h): BQL | Kidney concentration of administered compound ([3]; 7 h): BQL | Plasma concentration of administered compound ([3]; 7 h): BQL | concentration at 0.5 h ([3]; male, mouse, kidney, ip, read-out: Kidney concentration of administered compound): 8.51 ng/g | concentration at 0.5 h ([3]; male, mouse, liver, ip, read-out: Liver concentration of administered compound): 277 ng/g | concentration at 4 h ([3]; male, mouse, liver, ip, 4 h, read-out: Liver concentration of administered compound): 60.7 ng/g | concentration at 7 h ([3]; male, mouse, liver, ip, 7 h, read-out: Liver concentration of administered compound): 5.78 ng/g | concentration at 0.5 h ([3]; male, mouse, plasma, ip, read-out: Plasma concentration of administered compound): 3.67 ng/mL | IC50 for blockade of the Notch pathway, range in words [1]: high nM range | IC50 [1]: 258 nM
Compound: C[C@H]1Oc2ccc(F)cc2N(CCOC(=O)NCCNC(=O)[C@@H](N)CCC(=O)O)C(=O)[C@H]1NC(=O)[C@@](C)(O)C(=O)NCC(F)(F)C(F)(F)F [Compound 15b, (S)-4-amino-5-(2-((2-((2R,3S)-7-fluoro-3-((S)-2-hydroxy-2-methyl-3-oxo-3-(2,2,3,3,3-pentafluoropropylamino)propanamido)-2-methyl-4-oxo-3,4-dihydrobenzo[b][1,4]oxazepin-5(2H)-yl)ethoxy)carbonylamino)ethylamino)-5-oxopentanoic acid hydrochloride]
